Test results reported in patent publication US4341893A, “Quinazoline derivatives” (Synthelabo, priority 1976, dated 1982).

Tests used:
[1] = tested on: spontaneously hypertensive male rats (Okamoto strain); test: Anti-hypertensive effect in spontaneously hypertensive rats, systolic pressure; assay type: in vivo; conditions: 10 mg/kg perorally, spontaneously hypertensive rat
Description: Experiments were carried out on spontaneously hypertensive male rats (Okamoto strain), which were at least 14 weeks old. The systolic pressure was measured according to the technique described by Gerold and Tschirky (Arzneim.-Forsch. 1968, 18, 1285). The compounds were administered orally at a dose of 1 or 10 mg/kg.
Table II collects together the results obtained which are expressed in percent variation of the initial pressure, 2 hours, 4 hours and 24 hours after administration of the compound (I).

[2] = LD 50 rat (Table II); conditions: in vivo

| SMILES | % variation of the pressure after 2 hours [1] [%] | % variation of the pressure after 4 hours [1] [%] | % variation of the pressure after 24 hours [1] [%] | LD50 ([2]; ip / intraperitoneally) [mg/kg] | LD50 ([2]; po, perorally) [mg/kg] |
| --- | --- | --- | --- | --- | --- |
| COc1cc2nc(N3CCC(C(=O)c4ccc5c(c4)OCO5)CC3)nc(N)c2cc1OC [Compound 1, 4-Amino-6,7-dimethoxy-2-[4-(3,4-methylenedioxybenzoyl)piperidino]-quinazoline] | -30 | -32 | -37 | > 500 | – |
| COc1cc2nc(N3CCC(C(=O)c4ccccc4)CC3)nc(N)c2cc1OC [Compound 2] | -43 | -32 | -40 | > 500 | – |
| COc1cc2nc(N3CCC(C(=O)c4cccs4)CC3)nc(N)c2cc1OC [Compound 6] | -27 | -22 | -2 | > 500 | – |
| COc1cccc(C(=O)C2CCN(c3nc(N)c4cc(OC)c(OC)cc4n3)CC2)c1 [Compound 3, 4-Amino-6,7-dimethoxy-2-[4-(3-methoxybenzoyl)-piperidino]-quinazoline] | -32 | -23 | – | ~500 | – |
| COc1cc2nc(N3CCC(C(=O)c4nnc(SC)o4)CC3)nc(N)c2cc1OC [Compound 7, 4-amino-6,7-dimethoxy-2-[4-(5-methylthio-1,3,4-oxadiazole-2-carbonyl)-piperidino]-quinazoline] | -24 | -20 | -2 | – | > 500 |
| COc1cc2nc(N(C)CCCN(C)C(=O)c3ccccc3)nc(N)c2cc1OC [Compound 10, N1-(4-amino-6,7-dimethoxy-quinazolinyl-2)-N2-benzoyl-N1 N2-dimethyl-propylenediamine] | -23 | -15 | -4 | – | > 500 |
| COc1cc2nc(NCCCN(C)C(=O)c3ccccc3)nc(N)c2cc1OC [Compound 12, N1-(4-amino-6,7-dimethoxy-quinazolinyl-2)-N2-benzoyl-N2-methyl-propylenediamine] | -31 | -23 | – | ~400 | – |
